In ChEMBL document CHEMBL1201862, “PubChem BioAssay data set” (2004):
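Protocol summary: plate cells (96-well), add compound at 5 concentrations, incubate 48 h, interpolate endpoints linearly. At the GI50, growth is halved.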 Active and inactive are the calls of the source. Cut-off read from the data, not from the text of the source: active = GI50 up to about 1.1 µM and inactive = higher.

Experiments:
Test in all cases: NCI-60 cell line screen, 48 h
[1] = tested on: SNB-19
[2] = tested on: NCI-H522
[3] = tested on: OVCAR-8
[4] = tested on: SF-295
[5] = tested on: 786-0
[6] = tested on: SNB-75
[7] = tested on: UACC-257
[8] = tested on: NCI-H23
[9] = tested on: M14
[10] = tested on: HT-29
[11] = tested on: HCT-15
[12] = tested on: NCI-H226
[13] = tested on: SN12C
[14] = tested on: HCC 2998
[15] = tested on: TK-10
[16] = tested on: LOX IMVI
[17] = tested on: A498

## CC(C(=O)n1c2ccccc2c2ccccc21)N(c1ccccc1)c1ccccc1 (centres undefined)
[1]
  GI50: 45.1 µM (inactive)
[2]
  GI50: 2.75 µM (inactive)
[3]
  GI50: 18.6 µM (inactive)
[4]
  GI50: 19.4 µM (inactive)
[5]
  GI50: 16.6 µM (inactive)
[6]
  GI50: 20.2 µM (inactive)
[7]
  GI50: 17.9 µM (inactive)
[8]
  GI50: 18.9 µM (inactive)
[9]
  GI50: 16.7 µM (inactive)
[10]
  GI50: 19.5 µM (inactive)
[11]
  GI50: 17 µM
[12]
  GI50: 23.7 µM (inactive)
[13]
  GI50: 19.9 µM (inactive)
[14]
  GI50: 16.3 µM (inactive)
[15]
  GI50: 20 µM (inactive)
[16]
  GI50: 16.7 µM (inactive)

## O=C1OC(CC(=O)c2ccccc2Cl)C(Cl)=C1Cl (centres undefined)
[1]
  GI50: > 100 µM (inactive)
[2]
  GI50: > 100 µM (inactive)
[3]
  GI50: > 100 µM (inactive)
[4]
  GI50: > 100 µM (inactive)
[5]
  GI50: > 100 µM (inactive)
[7]
  GI50: > 100 µM (inactive)
[8]
  GI50: > 100 µM (inactive)
[9]
  GI50: > 100 µM (inactive)
[10]
  GI50: > 100 µM (inactive)
[11]
  GI50: > 100 µM
[12]
  GI50: > 100 µM (inactive)
[13]
  GI50: > 100 µM (inactive)
[14]
  GI50: > 100 µM (inactive)
[15]
  GI50: > 100 µM (inactive)
[16]
  GI50: > 100 µM (inactive)

## COC1OC(C)C(OC(=O)C(C)(C)C)C(C)(O)C1O (centres undefined)
[1]
  GI50: > 100 µM (inactive)
[2]
  GI50: > 100 µM (inactive)
[3]
  GI50: > 100 µM (inactive)
[4]
  GI50: > 100 µM (inactive)
[5]
  GI50: > 100 µM (inactive)
[7]
  GI50: > 100 µM (inactive)
[8]
  GI50: > 100 µM (inactive)
[9]
  GI50: > 100 µM (inactive)
[10]
  GI50: > 100 µM (inactive)
[11]
  GI50: > 100 µM
[12]
  GI50: > 10 µM (inactive)
[13]
  GI50: > 100 µM (inactive)
[17]
  GI50: > 100 µM (inactive)
[14]
  GI50: > 100 µM (inactive)
[15]
  GI50: > 100 µM (inactive)
[16]
  GI50: > 100 µM (inactive)

## C=CCOC(C)n1c(C)cc(=O)n(C(C)OCC=C)c1=O (centres undefined)
[1]
  GI50: > 100 µM (inactive)
[2]
  GI50: > 100 µM (inactive)
[3]
  GI50: > 100 µM (inactive)
[4]
  GI50: > 100 µM (inactive)
[5]
  GI50: > 100 µM (inactive)
[6]
  GI50: > 100 µM (inactive)
[7]
  GI50: > 100 µM (inactive)
[8]
  GI50: > 100 µM (inactive)
[9]
  GI50: > 100 µM (inactive)
[10]
  GI50: > 100 µM (inactive)
[11]
  GI50: > 100 µM
[12]
  GI50: > 100 µM (inactive)
[13]
  GI50: > 100 µM (inactive)
[17]
  GI50: > 100 µM (inactive)
[14]
  GI50: > 100 µM (inactive)

## Nc1ccc(-c2nc3ccc(Cc4ccc5nc(-c6ccc(N)cc6)oc5c4)cc3o2)cc1
[1]
  GI50: > 100 µM (inactive)
[2]
  GI50: > 100 µM (inactive)
[3]
  GI50: > 100 µM (inactive)
[4]
  GI50: > 100 µM (inactive)
[5]
  GI50: > 100 µM (inactive)
[7]
  GI50: > 100 µM (inactive)
[8]
  GI50: > 100 µM (inactive)
[9]
  GI50: 49.9 µM (inactive)
[10]
  GI50: > 100 µM (inactive)
[11]
  GI50: > 100 µM
[12]
  GI50: > 100 µM (inactive)
[13]
  GI50: > 100 µM (inactive)
[17]
  GI50: > 100 µM (inactive)
[14]
  GI50: > 100 µM (inactive)
[15]
  GI50: > 100 µM (inactive)
[16]
  GI50: > 100 µM (inactive)

## CN1N=C2c3ccccc3OC(c3ccccc3)[C@H]2C1c1ccccc1 (some centres undefined)
[1]
  GI50: > 100 µM (inactive)
[2]
  GI50: 22.5 µM (inactive)
[3]
  GI50: > 100 µM (inactive)
[4]
  GI50: 90.4 µM (inactive)
[5]
  GI50: > 100 µM (inactive)
[7]
  GI50: 81.1 µM (inactive)
[8]
  GI50: 79.4 µM (inactive)
[9]
  GI50: > 100 µM (inactive)
[10]
  GI50: 42.1 µM (inactive)
[11]
  GI50: 75 µM
[12]
  GI50: > 100 µM (inactive)
[13]
  GI50: > 100 µM (inactive)
[17]
  GI50: > 100 µM (inactive)
[14]
  GI50: 56.1 µM (inactive)
[15]
  GI50: > 100 µM (inactive)
[16]
  GI50: > 100 µM (inactive)
